Target: T1, HDAC-1 (Homo sapiens, UniProt Q13547)
T1 construct: made in house; host or cells: Sf9 or Sf21 insect cells (baculovirus, donor vector pFB-GSTX3)
Experiment: HDAC Inhibition Assay (purified GST-HDAC protein)
Format: biochemical
Source text: The baculovirus donor vector pFB-GSTX3 is used to generate a recombinant baculovirus that can express the HDAC polypeptide. Transfer vectors containing the HDAC coding region are transfected into the DH10Bac cell line (GIBCO) and plated on selective agar plates. Colonies without insertion of the fusion sequence into the viral genome (carried by the bacteria) are blue. Single, white colonies are picked and viral DNAs (bacmid) are isolated from the bacteria by standard plasmid purification procedures. Sf9 cells or Sf21 (American Type Culture Collection) cells are then transfected in […] flasks with the viral DNA using Cellfectin reagent.
Virus-containing media is collected from the transfected cell culture and used for infection to increase its titer. Virus-containing media obtained after two rounds of infection is used for large-scale protein expression. For large-scale protein expression 100 cm^2 round tissue culture plates are seeded with 5×10^7 cells/plate and infected with 1 mL of virus-containing media (at an approximately MOI of 5). After 3 days, the cells are scraped off the plate and centrifuged at 500 rpm for 5 minutes. Cell pellets from 10-20, 100 cm^2 plates, are re-suspended in 50 mL of ice-cold lysis buffer (25 mM tris-HCl, pH 7.5, 2 mM EDTA, 1% NP-40, 1 mM DTT, 1 mM P MSF). The cells are stirred on ice for 15 minutes and then centrifuged at 5,000 rpms for 20 minutes.
The centrifuged cell lysate is loaded onto a 2 mL glutathione-sepharose column (Pharmacia) and is washed thrice with 10 mL of 25 mM tris-HCl, pH 7.5, 2 mM EDTA, 1 mM DTT, 200 mM NaCl. The GST-tagged proteins are then eluted by 10 applications (1 mL each) of 25 mM tris-HCl, pH 7.5, 10 mM reduced-glutathione, 100 mM NaCl, 1 mM DTT, 10% glycerol and stored at −70° C.
HDAC assays with purified GST-HDAC protein are carried out in a final volume of 30 μL containing 15 ng of GST-HDAC protein, 20 mM tris-HCl, pH 7.5, 1 mM MnCl2, 10 mM MgCl2, 1 mM DTT, 3 μg/mL poly(Glu,Tyr) 4:1, 1% DMSO, 2.0 μM ATP (γ-[^33P]-ATP 0.1 μCi). The activity is assayed in the presence or absence of inhibitors. […] Subsequently, […] of the reaction mixture are transferred onto EMMOBILON-PVDF membrane (Millipore) previously soaked for 5 minutes with methanol, rinsed with water, then soaked for 5 minutes with 0.5% H3PO4 and mounted on vacuum manifold with disconnected vacuum source. After spotting all samples, a vacuum is connected and each well rinsed with 200 μL 0.5% H3PO4. Membranes are removed and washed four times on a shaker with 1.0% H3PO4, once with ethanol. Membranes are counted after drying at ambient temperature, mounting in Packard TopCount 96-well frame, and addition of 10 μL/well of MICROSCINT™ (Packard).
• Input: 3×4 μL stopped assay on IMMOBILON membrane, not washed • Background (3 wells): assay with H2O instead of enzyme • Positive control (4 wells): 3% DMSO instead of compound • Bath control (1 well): no reaction mix
In each experiment, the actual inhibition by reference compound is used for normalization of IC50 values to the basis of an average value of the reference inhibitor:
Normalized IC50=measured IC50 average ref. IC50/measured ref. IC50

T1 sequence (Q13547 whole entry, species assumed): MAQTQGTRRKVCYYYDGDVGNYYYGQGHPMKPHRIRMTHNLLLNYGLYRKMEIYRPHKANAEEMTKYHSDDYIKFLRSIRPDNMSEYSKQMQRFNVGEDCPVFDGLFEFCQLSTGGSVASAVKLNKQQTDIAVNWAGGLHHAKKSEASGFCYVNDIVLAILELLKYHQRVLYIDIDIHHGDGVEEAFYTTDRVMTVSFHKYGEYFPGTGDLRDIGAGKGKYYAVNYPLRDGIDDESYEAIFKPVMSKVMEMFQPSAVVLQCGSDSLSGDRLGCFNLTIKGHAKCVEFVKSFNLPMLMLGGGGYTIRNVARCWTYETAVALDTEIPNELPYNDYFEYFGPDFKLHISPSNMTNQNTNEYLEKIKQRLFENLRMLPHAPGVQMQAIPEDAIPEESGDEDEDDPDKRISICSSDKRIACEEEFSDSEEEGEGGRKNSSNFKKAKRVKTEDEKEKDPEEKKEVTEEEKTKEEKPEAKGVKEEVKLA

Compound	IC50 [nM]
O=C(/C=C/c1ccc(CN2CCN(S(=O)(=O)c3ccccc3)CC2)cc1)NO [Compound 50, (E)-3-[4-(4-Benzenesulfonyl-piperazin-1-ylmethyl)-phenyl]-N-hydroxy-acrylamide]	230
O=C(/C=C/c1ccc(CN2CCOC(c3nc(-c4ccccc4)no3)C2)cc1)NO (centres unmarked) [Compound 25, (E)-N-Hydroxy-3-{4-[2-(3-phenyl-[1,2,4]oxadiazol-5-yl)-morpholin-4-ylmethyl]-phenyl}-acrylamide]	39
O=C(/C=C/c1ccc(CN2CCN(C(=O)Nc3ccccc3)c3ccccc32)cc1)NO [Compound 59, 4-[4-((E)-2-Hydroxycarbamoyl-vinyl)-benzyl]-3,4-dihydro-2H-quinoxaline-1-carboxylic acid phenylamide]	320
O=C(/C=C/c1ccc(CN2CCOCC2)cc1)NO [Compound 47, (E)-N-Hydroxy-3-(4-morpholin-4-ylmethyl-phenyl)-acrylamide]	300
CCC(=O)N1CCN(Cc2ccc(/C=C/C(=O)NO)cc2)CC1 [Compound 52, (E)-N-Hydroxy-3-[4-(4-propionyl-piperazin-l-ylmethyl)-phenyl]-acrylamide]	350
O=C(/C=C/c1ccc(CN2CCN(C(=O)C3CCCCC3)c3ccccc32)cc1)NO [Compound 60, (E)-3-[4-(4-Cyclohexanecarbonyl-3,4-dihydro-2H-quinoxalin-1-ylmethyl)-phenyl]-N-hydroxy-acrylamide]	220
O=C(/C=C/c1ccc(CN2CCC3(CCc4ccccc4O3)CC2)cc1)NO [Compound 38, (E)-N-Hydroxy-3-(4-(spiro[chroman-2,4′-piperidine]-1′-ylmethyl)phenyl)acrylamide]	110
O=C(/C=C/c1ccc(CN2CCN(S(=O)(=O)c3ccccc3)c3ccccc32)cc1)NO [Compound 58, (E)-3-[4-(4-Benzenesulfonyl-3,4-dihydro-2H-quinoxalin-1-ylmethyl)-phenyl]-N-hydroxy-acrylamide]	290
O=C(/C=C/c1ccc(CN2CCC3(CC2)OC(=O)Nc2ccccc23)cc1)NO [Compound 34]	32
CC(=O)N(C)CC1(c2ccccc2)CCN(Cc2ccc(/C=C/C(=O)NO)cc2)CC1 [Compound 42, (E)-3-(4-{4-[(Acetyl-methyl-amino)-methyl]-4-phenyl-piperidin-1-ylmethyl}-phenyl)-N-hydroxy-acrylamide]	70
O=C(/C=C/c1ccc(CN2CCC(N3CCNC3=O)CC2)cc1)NO [Compound 44, (E)-N-Hydroxy-3-{4-[4-(2-oxo-imidazolidin-1-yl)-piperidin-1-ylmethyl]-phenyl}-acrylamide]	50
O=C(/C=C/c1ccc(CN2CCC3(CC2)OCCO3)cc1)NO [Compound 48, (E)-3-[4-(1,4-Dioxa-8-aza-spiro[4.5]dec-8-ylmethyl)-phenyl]-N-hydroxy-acrylamide]	130
CC1(C)c2[nH]c3ccccc3c2CCN1Cc1ccc(/C=C/C(=O)NO)cc1 [Compound 22, (E)-3-[4-(1,1-Dimethyl-1,3,4,9-tetrahydro-beta-carbolin-2-ylmethyl)-phenyl]-N-hydroxy-acrylamide]	150
O=C(/C=C/c1ccc(CN2CCC(c3cc4ccccc4o3)CC2)cc1)NO [Compound 35, (E)-3-[4-(4-Benzofuran-2-yl-piperidin-1-ylmethyl)-phenyl]-N-hydroxy-acrylamide]	46
O=C(/C=C/c1ccc(CN2CCN(C(=O)c3ccccc3)CC2)cc1)NO [Compound 51, (E)-3-[4-(4-Benzoyl-piperazin-1-ylmethyl)-phenyl]-N-hydroxy-acrylamide]	110
O=C(/C=C/c1ccc(CN2CCC(Cc3ccccc3)CC2)cc1)NO [Compound 49, (E)-3-[4-(4-Benzyl-piperidin-1-ylmethyl)-phenyl]-N-hydroxy-acrylamide]	37

Compound	IC50 [nM]
Cn1c(N2CCN(Cc3ccc(/C=C/C(=O)NO)cc3)CC2)cccc1=O [Compound 30, (E)-N-Hydroxy-3-{4-[4-(1-methyl-6-oxo-1,6-dihydro-pyridin-2-yl)-piperazin-1-ylmethyl]-phenyl}-acrylamide]	170
O=C(/C=C/c1ccc(CN2CCC3(CC2)NC(=O)N(CC2CC2)C3=O)cc1)NO [Compound 37, (E)-3-[4-(3-Cyclopropylmethyl-2,4-dioxo-1,3,8-triaza-spiro[4.5]dec-8-ylmethyl)-phenyl]-N-hydroxy-acrylamide]	< 430
CN1C(=O)C2(CCN(Cc3ccc(/C=C/C(=O)NO)cc3)CC2)c2ccccc21 [Compound 43, (E)-N-Hydroxy-3-(4-((1-methyl-2-oxospiro[indoline-3,4′-piperidine]-1′-yl)methyl)phenyl)acrylamide]	24
O=C(/C=C/c1ccc(CN2CCN(C(=O)NCc3ccccc3)c3ccccc32)cc1)NO [Compound 61, 4-[4-((E)-2-Hydroxycarbamoyl-vinyl)-benzyl]-3,4-dihydro-2H-quinoxaline-l-carboxylic acid benzylamide]	250
O=C(/C=C/c1ccc(CN2CCN(c3nc4ccccc4n3C(=O)c3ccccc3)CC2)cc1)NO [Compound 31, (E)-3-{4-[4-(1-Benzoyl-1H-benzoimidazol-2-yl)-piperazin-1-ylmethyl]-phenyl}-N-hydroxy-acrylamide]	231
O=C(/C=C/c1ccc(CN2CCN(Cc3ccc(Br)cc3)CC2)cc1)NO [Compound 27, (E)-3-{4-[4-(4-Bromo-benzyl)-piperazin-1-ylmethyl]-phenyl}-N-hydroxy-acrylamide]	130
O=C(/C=C/c1ccc(CN2CCN(C(=O)OCc3ccccc3)CC2)cc1)NO [Compound 29, 4-[4-((E)-2-Hydroxycarbamoyl-vinyl)-benzyl]-piperazine-1-carboxylic acid benzyl ester]	140
CCOC(=O)N1CCN(Cc2ccc(/C=C/C(=O)NO)cc2)CC1 [Compound 28, 4-[4-((E)-2-Hydroxycarbamoyl-vinyl)-benzyl]-piperazine-1-carboxylic acid ethyl ester]	170
Cc1ccc(S(=O)(=O)N2CCN(Cc3ccc(/C=C/C(=O)NO)cc3)CC2)cc1 [Compound 55, (E)-N-Hydroxy-3-{4-[4-(toluene-4-sulfonyl)-piperazin-1-ylmethyl]-phenyl}-acrylamide]	230
O=C(/C=C/c1ccc(CN2CCC(N3CCc4ccccc4C3=O)CC2)cc1)NO [Compound 41, (E)-N-Hydroxy-3-{4-[4-(1-oxo-3,4-dihydro-1H-isoquinolin-2-yl)-piperidin-1-ylmethyl]-phenyl}-acrylamide]	16
O=C(/C=C/c1ccc(CN2CCN(Cc3ccccc3)CC2)cc1)NO [Compound 26, (E)-3-[4-(4-Benzyl-piperazin-1-ylmethyl)-phenyl]-N-hydroxy-acrylamide]	100
O=C(CCc1ccc(CN2CCCC(c3c(-c4ccccc4)[nH]c4ccccc34)C2)cc1)NO (centres unmarked) [Compound 16, N-Hydroxy-3-{4-[3-(2-phenyl-1H-indol-3-yl)-piperidin-1-ylmethyl]-phenyl}-propionamide]	2.2
O=C(/C=C/c1ccc(CN2CCC(c3ccc(Cl)cc3CN3CCCC3=O)CC2)cc1)NO [Compound 40, (E)-3-(4-{4-[4-Chloro-2-(2-oxo-pyrrolidin-1-ylmethyl)-phenyl]-piperidin-1-ylmethyl}-phenyl)-N-hydroxy-acrylamide]	27
COc1cc(Br)c2oc(C3CCN(Cc4ccc(/C=C/C(=O)NO)cc4)CC3)cc2c1 [Compound 36, (E)-3-{4-[4-(7-Bromo-5-methoxy-benzofuran-2-yl)-piperidin-1-ylmethyl]-phenyl}-N-hydroxy-acrylamide]	500
CC(C)(C)CC(=O)N1CCN(Cc2ccc(/C=C/C(=O)NO)cc2)CC1 [Compound 53, (E)-3-{4-[4-(3,3-Dimethyl-butyryl)-piperazin-1-ylmethyl]-phenyl}-N-hydroxy-acrylamide]	160
CS(=O)(=O)N1CC2(CCN(Cc3ccc(/C=C/C(=O)NO)cc3)CC2)c2ccccc21 [Compound 39]	27

Source: US20110053925A1, “Hydroxamate-Based Inhibitors of Deacetylases” (Novartis AG, priority 2009, published 2011)
